Converted amounts (≈) assume the structure as drawn. Like-named read-outs stand apart in the source and are kept apart here.
B1: LST-002: mouse monoclonal antibody of U.S. Pat. No. 4,834,976, specific to P. aeruginosa flagellin type B (antibody, V domains shown)
VH: EVMLVESGGGLVKPGGSLKLSCAASGFTFSTFTMSWVRQTPEKRLECVATINGGGGNTYYPDSVKGRFTISRDNAKNNLYLQMSSLRSEDTAFYFCSRLYGIYAMDYWGQGTSVTVSS
VL: MKSHTQVFVYMLLWLSGVEGDIVMTQSHIFMSTSVGDRVSITCKASQDVGSAVAWYQQKPGQSPKVLIYWTSTRHTGVPDRFAGSGSGTEFTLTISNVQSEDLADYFCQQYSSYPLTFGAGTKLELKR
B2: LST-007: human IgM monoclonal antibody of U.S. Pat. No. 4,834,976, specific to P. aeruginosa flagellin type B (antibody, V domains shown)
VH: MDWTWRVFFLLAVAPGAHSQVRLVQSGTEVKKPGASVRVSCKASGYTFSNYYMYWVRQAPGQGLEWMAMINPSGGSTRYAQKFQGRVTMTRDTSTSTVYMELSSLRSEDTAVYYCARADSGSYFGYWGQGTLVTVSS
VL: MRVPAQLLGLLLLWLPGARCDIQLTQSPSFLSASVGDRVPITCRASQGISTHLAWYQQKPGKAPKLLIYAASTLQSGVPSRFSGSGSGTEFTLTISSLQPEDSATYYCQQLKSYPLTFGGGTKVEIKR

Experiments:
[1] = test system: Ka02 multi-drug resistant P. Aeruginosa strain; experiment: Antibiogram of Ka02 (Vitek MIC); assay type: cell-based; parameters: MIC site #2: unit not given here; conditions: for Vitek (sensitive/resistant call): calls of the two sites; for MIC: Pseudomonas aeruginosa; on Final (sensitive/resistant call): key: S = antibiotic sensitive; R = antibiotic resistance
Ka02 (MDR P. aeruginosa) = experiment: Mouse model of pneumonia driven by Ka02; assay type: in vivo, C57 Black mice; conditions: for Animal survival at day 3: Ka02 lung infection, treatment from 1 hr post-infection; for Animal survival at day 3 / survivors at day 3: unchanged at day 9; for survivors at day 3: survivors/animals in group
Method: Sixty-one (61) male Adult C57 Black mice (25-30 g, Harlan Nossan, Milan, Italy) were housed in a controlled environment in cages with filter tops in specific pathogen-free conditions. They were briefly anesthetized with inhaled sevorane (Abbot Laboratories) in an oxygenated chamber and placed in a supine position with their heads elevated approximately 30°. Ka02 bacterial inoculums (10^6 cfu's in 50 μl of lactated Ringer's solution) were instilled slowly into the left lung of each animal using a gavage needle.
Mice were randomly divided into 3 experimental treatment groups as follows:
a) Saline-Treated (n=20): saline administered i.v. 1 hr after infection followed by one further i.p. administration at 5 hr post-infection; b) LST-002-Treated (n=21): LST-002 given i.v. 1 hr after infection at a dose of 20 mg/kg followed by one further i.p. administration at 5 hr post-infection at a dose of 15 mg/kg; c) Positive control-Imipenem-Treated (n=20): “Tienam” (Merck, Sharpe and Dohme)] (active ingredient, imipenem, a carbapenem antibiotic) given i.p. 1 hr after infection at a dose of 25 mg/kg followed by further i.p. administrations at 25 mg/kg at time points of 5 hr, 24 hr, 29 hr, 48 hr and 53 hr following infection.
Survival was monitored for all groups every 12 hrs until day 9 post-infection and data depicted in Kaplan-Meier curves (FIG. 18). […] Survival at day 9 was unchanged from survival data observed at day 3, i.e. LST-002 was 240% more efficacious in increasing survival in mice with pneumonia than a currently accepted treatment protocol and increased survival by 700% as compared with untreated mice.

laboratory strain Pa01 = experiment: "Sandwich" motility assay, Pa01; assay type: cell-based, P. aeruginosa; conditions: LST-002 0.3-80 μg/ml, even at very low concentrations
MDR PA strain Ka02 = experiment: Neutropenic mouse thigh muscle infection model; assay type: in vivo, CD-1 mice
Method: Female CD-1 mice weighing 23-27 g (3-5 weeks in age) were rendered neutropenic by split i.p. administration of cyclophosphamide at doses of 150 mg/kg and 100 mg/kg on days 0 and +3. On day 4, 50 μl of freshly-grown Ka02 (2×10^7 cfu's per ml) was injected at a depth of 5 mm into the right thigh muscle (“ipsilateral”) whereas an equivalent volume of saline was injected into the left thigh muscle (“contralateral”). Over an ensuing 3 day period (days 5-7, i.e. 24, 48 and 72 hr following Ka02 administration), the surface areas of the infected thigh muscle lesions were measured with calipers in both ipsilateral and contralateral muscles. Ratios of surface areas of infection lesions of ipsilateral muscles divided by contralateral muscle lesions were calculated with ratios >1 indicative of Ka02. This calculation is called the Ratio-Infection Index (RII). In some mice, LST-002 was administered i.v. at 20 mg/kg, 60 min after administration of Ka02. Further dosing of LST-002 (10 mg/kg) was given i.p. at time points+5 hr, +24 hr and +48 hr after infection.

[2] = single i.v. injection at 10 mg/kg; preliminary
[3] = test system: MDR P. aeruginosa strain Ka02; experiment: "Sandwich" motility assay, Ka02; assay type: cell-based; conditions: LST-002 0.3-80 μg/ml, even at very low concentrations
Method: Using an alternative in-vitro motility technology, the effects of LST-002 on motility of a MDR P. aeruginosa (PA) strain (Ka02) was performed. In 10 cm plastic culture dishes, a 6 ml underlayer of 0.6% agar in LB was poured and allowed to solidify. During this period, 6 ml of LB was aliquoted into separate tubes to which LST-002 was added at final concentrations 80, 20, 5, 1.25, 0.3 and 0 μg/ml. Thereafter, 10 μA of bacterial culture (containing ˜20-100 cfu) was added followed by 6 mls of 0.6% agar in LB. This ˜12 ml solution was poured onto the solidified agar under-layer. Following solidification, a final upper layer comprising of 6 mls 0.6% agar in LB was added. Plates were transferred to an incubator at 37° C. for 18-22 hr to allow bacterial growth and swarming (i.e. motility) and the diameter of the bacterial colonies measured.

[4] = test system: P. Aeruginosa flagellin type A strain 27853; conditions: ELISA, LST-007 supernatant, LST-008 0.5 μg/ml
[5] = test system: P. Aeruginosa strains harboring flagellin type B (Pa01, Ka01, Ka02, Ka03, Ka04, 25619, NCTC 10662); experiment: Whole-bacteria binding ELISA, flagellin type B strains; conditions: LST-007 supernatant, LST-008 0.5 μg/ml
Method: P. aeruginosa laboratory strains PAK (flagellin type A) and Pa01 (flagellin type B) were grown overnight, diluted to an OD of 0.3 and washed with PBS. Fifty μl bacteria were then plated onto ELISA plates pre-coated with 50 μl poly-L-lysine (1 μg/ml in PBS) which were blocked with PBS-10% fetal calf serum (FCS). Following overnight incubation with bacteria at 4° C., plates were washed with 0.9% saline-0.05% Tween-20 and incubated with 1:2 dilutions of LST-001, LST-002, LST-007 supernatant or purified LST-003 (˜2 μg/ml) for 2 hrs at room temperature. Following washing, secondary goat anti-mouse (LST-001, LST-002) or goat anti-human detecting antibodies (LST-003, LST-007) were added and coloration generated following the addition of TMB substrate and plates read for absorbance (405 nm) following addition of 10% H2SO4.

[6] = read-out: MIC site #1, heading: MIC site #1, Ka02, Vitek, testing site #1
[7] = read-out: MIC site #2, heading: MIC site #2, Ka02, Vitek, testing site #2
[8] = ipsilateral/contralateral lesion area, 20 mg/kg i.v. +60 min, 10 mg/kg i.p. +5, +24, +48 hr

Molecule	Final (sensitive/resistant call) ([1]; Ka02)	Vitek (sensitive/resistant call) ([1]; Ka02)	other results
C[C@@H](O)[C@H]1C(=O)N2C(C(=O)O)=C(S[C@@H]3CN[C@H](C(=O)N(C)C)C3)[C@H](C)[C@H]12 [Meropenem]	R	R/R	–
C[C@@H](O)[C@H]1C(=O)N2C(C(=O)O)=C(SCCN=CN)C[C@H]12 [Imipenem]	R	R	Animal survival at day 3 (Ka02 (MDR P. aeruginosa)): 30%; survivors at day 3 (Ka02 (MDR P. aeruginosa)): 6/20
CN(C)c1ccc(O)c2c1C[C@H]1C[C@H]3[C@H](N(C)C)C(O)=C(C(N)=O)C(=O)[C@@]3(O)C(O)=C1C2=O [Minocycline]	R	–	–
Piperacillin/Tazobactam	R	R/R	–
O=C(O)c1cn(C2CC2)c2cc(N3CCNCC3)c(F)cc2c1=O [Ciprofloxacin]	R	R/R	MIC [1, 6]: 4 µg/mL (≈ 12.1 µM); MIC [1, 7]: ≥ 4 µg/mL
Trimethoprim-Sulfamethoxazole	R	R/R	–
Gentamicin	–	R/S	MIC site #2 ([1]; Ka02, Vitek, testing site #2): 4
CCN1CCN(C(=O)N[C@@H](C(=O)N[C@@H]2C(=O)N3[C@@H]2SC(C)(C)[C@@H]3C(=O)O)c2ccccc2)C(=O)C1=O [Piperacillin]	R	R	–
C[C@H]1[C@H](NC(=O)/C(=N\OC(C)(C)C(=O)O)c2csc(N)n2)C(=O)N1S(=O)(=O)O [Aztreonam]	R	R	–
CN(C)c1cc(NC(=O)CNC(C)(C)C)c(O)c2c1C[C@H]1C[C@H]3[C@H](N(C)C)C(O)=C(C(N)=O)C(=O)[C@@]3(O)C(O)=C1C2=O [Tigecycline]	R	R	MIC ([1]; read-out: MIC site #2): ≥ 8 µg/mL
CC(C)(O/N=C(\C(=O)N[C@@H]1C(=O)N2C(C(=O)[O-])=C(C[n+]3ccccc3)CS[C@H]12)c1csc(N)n1)C(=O)O [Ceftazidime]	S-R	S/R	MIC [1, 6]: 8 µg/mL (≈ 14.6 µM)
Colistin	S	S	MIC site #2 ([1]; Ka02, Vitek, testing site #2): 2
CO/N=C(\C(=O)N[C@@H]1C(=O)N2C(C(=O)[O-])=C(C[N+]3(C)CCCC3)CS[C@H]12)c1csc(N)n1 [Cefepime]	R	R/R	–
O=C(N[C@H](CO)[C@H](O)c1ccc([N+](=O)[O-])cc1)C(Cl)Cl [Chloramphenicol]	R	R	–
CO/N=C(\C(=O)N[C@@H]1C(=O)N2C(C(=O)O)=C(COC(C)=O)CS[C@H]12)c1csc(N)n1 [Cefotaxime]	R	R/R	–
C[C@H]1COc2c(N3CCN(C)CC3)c(F)cc3c(=O)c(C(=O)O)cn1c23 [Levofloxacin]	R	R	MIC [1, 7]: ≥ 8 µg/mL
NC[C@H]1O[C@H](O[C@H]2[C@H](O)[C@@H](O[C@H]3O[C@H](CO)[C@@H](O)[C@H](N)[C@H]3O)[C@H](N)C[C@@H]2N)[C@H](N)C[C@@H]1O [Tobramycin]	R	R/I	MIC [1, 7]: 8 µg/mL (≈ 17.1 µM)
Ticracillin/CA	R	R	–
Amoxicillin/Calvulanic acid	R	R	MIC site #2 ([1]; Ka02, Vitek, testing site #2): 32
Ampicillin/Sulbactam	R	R/R	–
NCC[C@H](O)C(=O)N[C@@H]1C[C@H](N)[C@@H](O[C@H]2O[C@H](CN)[C@@H](O)[C@H](O)[C@H]2O)[C@H](O)[C@H]1O[C@H]1O[C@H](CO)[C@@H](O)[C@H](N)[C@H]1O [Amikacin]	S	S/S	–
B1	–	–	size of bacterial colonies (motility) (laboratory strain Pa01): significant reduction in the size of bacterial colonies; Ratio-Infection Index (RII) day 5 (MDR PA strain Ka02; [8]): 1.09; Ratio-Infection Index (RII) day 7 (MDR PA strain Ka02; [8]): 0.96; infection lesions in thigh muscle infected with Ka02 (MDR PA strain Ka02; neutropenic mice): totally prevented infection lesions; early plasma concentration [2]: ~200 µg/mL; Animal survival at day 3 (Ka02 (MDR P. aeruginosa)): 71.4%; increased survival as compared with untreated mice (Ka02 (MDR P. aeruginosa); day 3 / day 9 survival): 700%; more efficacious in increasing survival than currently accepted treatment protocol (imipenem) (Ka02 (MDR P. aeruginosa); day 3 / day 9 survival): 240%; survivors at day 3 (Ka02 (MDR P. aeruginosa)): 15/21; size of bacterial colonies (motility) [3]: significant reduction in the size of bacterial colonies
B2	–	–	binding to whole bacteria harboring flagellin type A [4]: not flagellin type A; binding to whole bacteria harboring flagellin type B [5]: specifically binds to all seven P. Aeruginosa bacteria strains tested

From patent US8653242B2, “Therapeutic antibodies against flagellated Pseudomonas aeruginosa” (priority 2010, dated 2014)
